The text below walks through data of PubChem BioAssay AID1918943 (Molecular Pharmacology Branch, DTP, NCI, 2023).

In the assay the test system is 855422-203-R-J1-PDC complex spheroid viability. Nature of the assay: Anticancer human tumor 855422-203-R-J1-PDC patient-derived bladder carcinoma cell line growth inhibition. The note with it: for viability, T/C: stronger effect = lower value. The gist of the method: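 Multicellular complex spheroids of tumor cells with human endothelial cells (HUVEC) and mesenchymal stem cells; the LSD1 inhibitor iadademstat was combined with standard-of-care or investigational agents. Top concentration at or near clinical Cmax, half-log dilutions; final DMSO ≤0.25%.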

The mark [1] stands for this setting: curve of first compound, second compound 0.1 µM.
Setting [2] is: curve of first compound, second compound 0.316 µM.
[3] abbreviates: curve of first compound, second compound 1 µM.
Setting [4] is: curve of first compound, second compound 3.16 µM.
[5] abbreviates: curve of first compound, second compound 10 µM.
The mark [6] stands for this setting: second compound 0.1 µM, first compound 0.00949 µM.
Where [7] appears, read: second compound 0.1 µM, first compound 0.03 µM.
Where [8] appears, read: second compound 0.1 µM, first compound 0.0949 µM.
Where [9] appears, read: second compound 0.1 µM, first compound 0.3 µM.
Where [10] appears, read: second compound 0.1 µM, first compound 0.949 µM.
Setting [11] is: second compound 0.1 µM, first compound 3 µM.
The mark [12] stands for this setting: second compound 0.316 µM, first compound 0.00949 µM.
[13] abbreviates: second compound 0.316 µM, first compound 0.03 µM.
Setting [14] is: second compound 0.316 µM, first compound 0.0949 µM.
Where [15] appears, read: second compound 0.316 µM, first compound 0.3 µM.
Where [16] appears, read: second compound 0.316 µM, first compound 0.949 µM.
[17] abbreviates: second compound 0.316 µM, first compound 3 µM.
[18] abbreviates: second compound 1 µM, first compound 0.00949 µM.
[19] abbreviates: second compound 1 µM, first compound 0.03 µM.
[20] abbreviates: second compound 1 µM, first compound 0.0949 µM.
Where [21] appears, read: second compound 1 µM, first compound 0.3 µM.
The mark [22] stands for this setting: second compound 1 µM, first compound 0.949 µM.
The mark [23] stands for this setting: second compound 1 µM, first compound 3 µM.
The mark [24] stands for this setting: second compound 3.16 µM, first compound 0.00949 µM.
Setting [25] is: second compound 3.16 µM, first compound 0.03 µM.
Where [26] appears, read: second compound 3.16 µM, first compound 0.0949 µM.
[27] abbreviates: second compound 3.16 µM, first compound 0.3 µM.
[28] abbreviates: second compound 3.16 µM, first compound 0.949 µM.
The mark [29] stands for this setting: second compound 3.16 µM, first compound 3 µM.
Setting [30] is: second compound 10 µM, first compound 0.00949 µM.
The mark [31] stands for this setting: second compound 10 µM, first compound 0.03 µM.
Where [32] appears, read: second compound 10 µM, first compound 0.0949 µM.
Where [33] appears, read: second compound 10 µM, first compound 0.3 µM.
The mark [34] stands for this setting: second compound 10 µM, first compound 0.949 µM.
Setting [35] is: second compound 10 µM, first compound 3 µM.

Values joined by “and” are separate entries in the source; they are usually repeats but may differ in a detail not shown here. Identical values can stand only once.
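Note: drug exposure lasted 7 days starting on day 3 after seeding.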
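Throughout, for viability, T/C: luminescence viability as percent of DMSO vehicle wells = 100%.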

For the compound `CC(C)CC(NC(=O)CNC(=O)c1cc(Cl)ccc1Cl)B1OC(=O)CC(CC(=O)O)(C(=O)O)O1` (centres undefined) + NC1CC1c1ccc(-c2cccc(O)c2)cc1, the IC50 reads like this: under setting [1], 1.8 nM; under setting [2], 1.83 nM; under setting [3], 1.84 nM; under setting [4], 1.75 nM; under setting [5], 1.55 nM. Also, the viability, T/C is, setting by setting: (second compound 0.1 µM, first compound 0.000316 µM) 92.8%; (second compound 0.1 µM, first compound 0.001 µM) 104%; (second compound 0.1 µM, first compound 0.00316 µM) 3.7%; (second compound 0.1 µM, first compound 0.01 µM) 0.43%; (second compound 0.1 µM, first compound 0.0316 µM) 0.02%; (second compound 0.1 µM, first compound 0.1 µM) 0.13%. Further, the viability, T/C reads like this: (second compound 0.316 µM, first compound 0.000316 µM) 104%; (second compound 0.316 µM, first compound 0.001 µM) 102%; (second compound 0.316 µM, first compound 0.00316 µM) 3.27%; (second compound 0.316 µM, first compound 0.01 µM) 1.25%; (second compound 0.316 µM, first compound 0.0316 µM) 0.02%; (second compound 0.316 µM, first compound 0.1 µM) 0.1%. The viability, T/C is 94.6% (second compound 1 µM, first compound 0.000316 µM); 108% (second compound 1 µM, first compound 0.001 µM); 3.81% (second compound 1 µM, first compound 0.00316 µM); 1.65% (second compound 1 µM, first compound 0.01 µM); 0.03% (second compound 1 µM, first compound 0.0316 µM); 0.11% (second compound 1 µM, first compound 0.1 µM). For the same compound, the viability, T/C runs as follows: (second compound 3.16 µM, first compound 0.000316 µM) 95%; (second compound 3.16 µM, first compound 0.001 µM) 94.6%; (second compound 3.16 µM, first compound 0.00316 µM) 3.11%; (second compound 3.16 µM, first compound 0.01 µM) 1%; (second compound 3.16 µM, first compound 0.0316 µM) 0.03%; (second compound 3.16 µM, first compound 0.1 µM) 0.1%. Further, the viability, T/C runs as follows: (second compound 10 µM, first compound 0.000316 µM) 92%; (second compound 10 µM, first compound 0.001 µM) 78.9%; (second compound 10 µM, first compound 0.00316 µM) 2.61%; (second compound 10 µM, first compound 0.01 µM) 0.2%; (second compound 10 µM, first compound 0.0316 µM) 0.11%; (second compound 10 µM, first compound 0.1 µM) 0.17%.
As to `CC1COCCN1c1cc(-c2ccnn2C)c2ccnc(-c3ccn[nH]3)c2n1` (centres undefined), the viability, T/C runs as follows: (compound 0.00316 µM) 98.3% and 96.7%; (compound 0.01 µM) 90.6% and 99.5%; (compound 0.0316 µM) 90.2% and 105%; (compound 0.1 µM) 46% and 48.9%; (compound 0.316 µM) 32.3% and 26%; (compound 1 µM) 25.3% and 22.9%. Moreover, the IC50 (curve of compound) was 91 nM and 97.7 nM.
Regarding `Nc1ccccc1NC(=O)c1ccc(CNC(=O)OCc2cccnc2)cc1` + NC1CCC(NC2CC2c2ccccc2)CC1, the IC50 is, setting by setting: under setting [1], 1340 nM; under setting [2], 1430 nM; under setting [3], 1370 nM; under setting [4], 1390 nM; under setting [5], 1060 nM. The viability, T/C runs as follows: under setting [6], 94.5%; under setting [7], 85%; under setting [8], 93.3%; under setting [9], 96.1%; under setting [10], 66.1%; under setting [11], 12.3%. Further, the viability, T/C is, setting by setting: under setting [12], 93.5%; under setting [13], 87.5%; under setting [14], 91.5%; under setting [15], 95%; under setting [16], 73.1%; under setting [17], 9.06%. For the same compound, the viability, T/C runs as follows: under setting [18], 93.2%; under setting [19], 90.9%; under setting [20], 98%; under setting [21], 95.9%; under setting [22], 69.5%; under setting [23], 9.07%. Also, the viability, T/C is, setting by setting: under setting [24], 84.6%; under setting [25], 84.2%; under setting [26], 87.8%; under setting [27], 85.5%; under setting [28], 72%; under setting [29], 5.75%. In addition, the viability, T/C by setting is: under setting [30], 88.7%; under setting [31], 81.2%; under setting [32], 86.2%; under setting [33], 87.3%; under setting [34], 55.2%; under setting [35], 1.52%.
Consider `COc1cc(C2c3cc4c(cc3C(OC3OC5COC(C)OC5C(O)C3O)C3COC(=O)C23)OCO4)cc(OC)c1O` (centres undefined) + NC1CCC(NC2CC2c2ccccc2)CC1, for which the IC50 under setting [1] was 153 nM; the IC50 under setting [2] came out at 142 nM; the IC50 under setting [3] is 137 nM; the IC50 under setting [4] is 128 nM; the concentration for half-maximal inhibition (IC50) under setting [5] came to 130 nM. Moreover, the viability, T/C under setting [6] is 89.8%; the viability, T/C under setting [7] is 87.1%; the viability, T/C under setting [8] is 57.6%; the viability, T/C under setting [9] is 35.6%; the viability, T/C under setting [10] was 18.5%; the viability, T/C under setting [11] is 9.63%. The viability, T/C is 92% under setting [12]; 86.4% under setting [13]; 55.4% under setting [14]; 34.6% under setting [15]; 19.5% under setting [16]; 10.1% under setting [17]. For the same compound, the viability, T/C under setting [18] was 85.2%; the viability, T/C under setting [19] was 81.9%; the viability, T/C under setting [20] is 56.9%; the viability, T/C under setting [21] was 31.7%; the viability, T/C under setting [22] was 16.4%; the viability, T/C under setting [23] was 8.66%. Also, the viability, T/C is 85% under setting [24]; 84.9% under setting [25]; 53.6% under setting [26]; 30.5% under setting [27]; 17% under setting [28]; 8.59% under setting [29]. Further, the viability, T/C reads like this: under setting [30], 78.4%; under setting [31], 79.7%; under setting [32], 57.7%; under setting [33], 26.8%; under setting [34], 15.8%; under setting [35], 8.09%.
As for `COc1cc(Nc2ncc3c(n2)-c2ccc(Cl)cc2C(c2c(F)cccc2OC)=NC3)ccc1C(=O)O`, the viability, T/C is, setting by setting: (compound 0.00316 µM) 95.3% and 91.3%; (compound 0.01 µM) 96.3% and 104%; (compound 0.0316 µM) 80.6% and 79.7%; (compound 0.1 µM) 79.5% and 71.7%; (compound 0.316 µM) 62.2% and 59.5%; (compound 1 µM) 63.8% and 64.5%. Further, under “curve of compound”, the IC50 is above 1000 nM.

What is called IC50 is the point on the concentration scale where inhibition reaches its midpoint. The term viability, T/C denotes the ratio of treated to control.
